Measurements reported in paper PMC4840416, “Constructing and Validating High-Performance MIEC-SVM Models in Virtual Screening for Kinases: A Better Way for Actives Discovery” (Scientific Reports, 2016).

Each compound was assayed against T1, recombinant human ALK protein (Homo sapiens, UniProt Q9UM73) (assay: LanthaScreen TR-FRET in vitro inhibitory activity assay of ALK). Settings: TR-FRET, 5 μM ATP, 1 hour at room temperature.
T1 construct: purchased Life Technologies Inc. PV3867
Format: biochemical
Experimental: All reagents and anhydrous solvents were obtained from commercial sources and used as received. The positive control inhibitors of ALK, crizotinib and ceritinib, were purchased from Bangshunda Technology and Selleck Chemicals, respectively. The compounds were dissolved in 100% dimethyl sulfoxide (DMSO) as a 10 mM stock solution. The final DMSO concentration in each reaction was less than 1%. Purified recombinant human ALK protein (Catalog number: PV3867) as well as reagents for TR-FRET assay, including Lantha Screen™ Tb-PY20 (Catalog number: PV3552), Fluorescein-Poly GT (Catalog number: PV3610), ATP (Catalog number: PV3227), Kinase Quench Buffer (Catalog number: P2832), Kinase Buffer (Catalog number: PV3189), and Antibody Dilution Buffer (Catalog number: PV3574), were all obtained from Life Technologies Inc.
Lantha Screen™ kinase assay based on TR-FRET technology was used to measure the inhibitory activity of the screened compounds. All the assays were carried out in 384-well plate format. The 4 × test compounds were firstly prepared before the enzyme reaction starts. The 4 × recombinant human ALK protein and 2 × Substrate/ATP mixture were separately prepared in 50 mM HEPES (pH = 7.5), 0.01% BRIJ-35, 10 mM MgCl2, 4 mM MnCl2, 1 mM EGTA, and 2 mM DTT. The final 10 μL kinase reaction consists of 5 μL 1 × Substrate/ATP mixture (0.2 μM substrate and 5 μM ATP), 2.5 μL ALK (5 ng/ml ALK protein), and 2.5 μL 1 × test compounds with desired concentration. The assay plate was shook on a plate shaker for 30 seconds to mix the reactions thoroughly. After 1 hour kinase reaction incubation at room temperature (20 ~ 25 °C), 10 μL of pre-prepared 20 mM EDTA and 4 nM Tb-labeled antibody solution was then added to terminate the kinase reactions and to initiate antibody binding, and the assay plate was incubated for another 1 hour at room temperature. Then, the assay plate was placed into a fluorescence plate reader (BioTek Synergy™ 4) to measure both fluoresce in and terbium emission signals (excitation: 340 nm; emission: 520 and 495 nm, respectively) with 100 μs delay time and 200 μs integration time. To determine the IC50 values, the resulted inhibitory activity calculated from TR-FRET emission ratio (i.e. fluoresce in emission intensity/terbium emission intensity) was plotted against the concentration of inhibitor, and the data was fitted to a dose-response curve with a variable slop.

T1 sequence (Q9UM73 1058-1620 limits assumed): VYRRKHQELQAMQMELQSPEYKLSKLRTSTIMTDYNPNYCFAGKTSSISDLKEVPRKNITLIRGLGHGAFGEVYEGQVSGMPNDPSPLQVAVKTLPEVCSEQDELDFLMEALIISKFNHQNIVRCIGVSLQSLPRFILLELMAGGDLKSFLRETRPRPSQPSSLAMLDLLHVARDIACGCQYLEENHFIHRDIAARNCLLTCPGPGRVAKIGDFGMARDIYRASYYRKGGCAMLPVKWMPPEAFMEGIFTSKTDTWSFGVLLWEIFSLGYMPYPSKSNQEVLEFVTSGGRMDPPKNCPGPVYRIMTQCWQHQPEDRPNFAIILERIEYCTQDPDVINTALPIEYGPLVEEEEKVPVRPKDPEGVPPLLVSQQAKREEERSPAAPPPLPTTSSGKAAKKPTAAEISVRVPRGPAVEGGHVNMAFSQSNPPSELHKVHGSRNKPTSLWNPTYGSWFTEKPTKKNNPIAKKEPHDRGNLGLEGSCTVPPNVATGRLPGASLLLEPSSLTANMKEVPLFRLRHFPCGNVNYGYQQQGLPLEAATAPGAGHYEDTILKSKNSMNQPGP

Point of comparison: CCN1C(=O)c2cccc3c(S(=O)(=O)Nc4nc5ccccc5s4)ccc1c23 [Compound M7], IC50 6.05 µM. Against it:
- O=C(CN1C(=O)C(=NNC(=O)c2ccc(NC(=O)c3ccccc3)cc2)c2ccccc21)Nc1ccccc1 [Compound A2] — 7.3-fold lower, 0.832 µM
- Cc1ccc(N2C(=O)C(=Cc3ccc(C)s3)C(=O)N(c3ccc(C)cc3C)C2=S)c(C)c1 [Compound M3] — 12-fold lower, 0.515 µM
- Cc1cccc2cc3c(nc12)N(C(=O)c1ccc(S(=O)(=O)N2CCCCC2)cc1)CC3 [Compound M8] — 1.9-fold higher, 11.5 µM

Same assay, conditions: compound at 2ug/ml

Point of comparison: CC(C)N(C(=O)Cn1c(/C=C/c2ccccc2)nc2ccccc21)c1ccccc1 [AF-399/15335536], “Averaged Enzymatic Inhibition @ 2ug/ml (%)” value 5.725%. Against it:
- O=C1OC(c2ccccc2Cl)=N/C1=C\c1ccc(OCc2ccccc2)cc1OCc1ccccc1 [AK-968/37055166] — lower, -8.735%
- Cc1ccc(C2C(C(=O)c3cc4ccccc4o3)=C(O)C(=O)N2c2nc3c(C)cc(C)cc3s2)cc1 (stereo not drawn) [AF-399/42017504] — lower, -5.97%
- Cc1cccc(N(CC(=O)N/N=C/c2cccc(Br)c2)S(=O)(=O)c2ccccc2)c1C [AH-487/40936079] — lower, 0.44%
- COc1cccc(-c2cc3c(c(N)c2C#N)c(=O)oc2ccccc23)c1 [AO-476/43362608] — higher, 9.055%
- Cc1ccc(-c2nc(N3CC4(C)CC3CC(C)(C)C4)c3ccccc3n2)cc1 (stereo not drawn) [AE-641/40974923] — higher, 13.995%
- CCC(Oc1ccc2ccccc2c1Br)C(=O)NNC(=O)c1cc2cc(Br)ccc2oc1=O (stereo not drawn) [AK-968/37077046] — lower, 3.24%
- Cc1cc(C)c2oc(-c3cccc(NC(=O)COc4cc(Cl)c(Cl)cc4Cl)c3C)nc2c1 [AN-465/40934866] — lower, 2.22%
- c1ccc(-c2cc(-c3c(-c4ccccc4)cn4c3sc3ccccc34)c(-c3ccccc3)nn2)cc1 [AQ-344/43100304] — lower, -14.115%
- O=C(Nc1ccc(Cl)cc1)C1CC(=O)N(c2ccc(Oc3ccccc3)cc2)C1 (stereo not drawn) [AO-081/15572353] — lower, -3.26%
- Cc1cc(C)c2oc(-c3ccc(C)c(NS(=O)(=O)c4cc([N+](=O)[O-])ccc4Cl)c3)nc2c1 [AG-690/08629011] — higher, 26.47%
- Cc1cccc2cc3c(nc12)N(C(=O)c1ccc(S(=O)(=O)N2CCCCC2)cc1)CC3 [Compound M8] — higher, 48.88%
- COc1cc(/C=N/n2c(-c3ccccc3)n[nH]c2=S)cc(OC)c1O [AG-205/36915079] — higher, 18.19%
- c1ccc(-c2oc3ncn4nc(COc5cccc6ccccc56)nc4c3c2-c2ccccc2)cc1 [AE-848/12917024] — higher, 13.565%
- O=c1oc2ccccc2cc1-c1nnc(NC2CCCCC2)s1 [AQ-968/42007731] — lower, -5.865%
- c1ccc(CSc2nnc3c(n2)OC(c2c4ccccc4cc4ccccc24)Nc2ccccc2-3)cc1 (stereo not drawn) [AN-655/13300050] — higher, 23.865%
- COc1ccc(Cl)cc1C(=O)NCCNc1ccc(-n2nc(C)cc2C)nn1 [AQ-432/43400100] — lower, -6.36%
- c1ccc(-c2oc3ncn4nc(CSc5nc6ccccc6s5)nc4c3c2-c2ccccc2)cc1 [AG-690/12869680] — lower, -1.245%
- CCc1ccc2[nH]c3nc(N/N=C/c4ccc(-c5cccc(C(F)(F)F)c5)o4)nnc3c2c1 [AN-655/15262058] — higher, 11.82%
- Nc1nc(Nc2cccc(Cl)c2)sc1C(=O)C12CC3CC(CC(C3)C1)C2 [AM-807/12426163] — higher, 5.915%
- CCCn1c(=O)c(C(=O)NNS(=O)(=O)c2ccc(Br)cc2)c(O)c2ccccc21 [AG-690/11765341] — higher, 9.265%
- Cc1cccc(N=c2sc(C3=c4cc(C)ccc4=NC3=O)c(O)n2-c2cccc(C)c2)c1 [AK-968/11780042] — lower, -8.175%
- CCc1ccc(-n2c(CSc3nnnn3-c3ccccc3)nc3ccccc3c2=O)cc1 [AG-205/37086057] — higher, 40.815%

Same assay, conditions: compound at 2ug/ml, read-out: Averaged Enzymatic Inhibition @ 2ug/ml (%)

Point of comparison: O=C(CN1C(=O)C(=NNC(=O)c2ccc(NC(=O)c3ccccc3)cc2)c2ccccc21)Nc1ccccc1 [Compound A2], inhibition at 2 µg/mL 50.4%. Against it:
- Cc1ccc(N2C(=O)C(=Cc3ccc(C)s3)C(=O)N(c3ccc(C)cc3C)C2=S)c(C)c1 [Compound M3] — higher, 91.5%
- CCN1C(=O)c2cccc3c(S(=O)(=O)Nc4nc5ccccc5s4)ccc1c23 [Compound M7] — higher, 50.8%
